Test results as given in patent US20150246024A1 (priority 2012, published 2015).
pIC50: −log10 of the molar value. Converted amounts (≈) assume the structure as drawn. “And” between values parts separate entries of the source, which are not always exact repeats. Identical values can stand only once. “Also recorded” adds a separate entry of the source.

Experiments:
E. faecium - VRE TX0016 = assay: microbe, parasite or virus in culture; format: cell-based; conditions: 37° C., 18-22 hours, OD600
[1] = test system: S. aureus RN4220 colony isolates from gradient plates with 10-200 μM compound 1771; assay: Susceptibility of colony isolates from compound 1771 gradient plates; format: cell-based
C. difficile JIR8094 = assay: Growth inhibition assay (MIC/IC50), 96-well; format: cell-based; conditions: sigmoidal fit
B. cereus G9142 = format: cell-based
[2] = test system: LTA production in S. aureus; assay: Inhibition of LTA synthesis in S. aureus (immunoblot)
C. difficile UK1 = assay: Growth inhibition assay (MIC/IC50), 96-well; format: cell-based
B. anthracis Ames = format: cell-based; conditions: 37° C., 18-22 hours, OD600
C. difficile R20291 = assay: Growth inhibition assay (MIC/IC50), 96-well; format: cell-based
S. aureus RN4220 (MSSA) = assay: microbe, parasite or virus in culture; format: cell-based; conditions: 37° C., 18-22 hours, OD600
E. faecalis V583 [3] = format: cell-based
[4] = Half-life of compound in mice (blood, HPLC, mass spectrometry); format: in vivo; conditions: 32 mg/kg intraperitoneal
Procedure: The therapeutic impact of compound 1771 during infection was examined. First, we evaluated the half-life of compound 1771 in vivo. Animals received intraperitoneal injections with 32 mg/kg of compound. The blood of three animals was drawn 1, 6 and 12 hours following intraperitoneal injections and the compound was extracted with methanol and chloroform, separated by reverse phase HPLC and subjected to mass spectrometry (data not shown). […] The conversion occurred between 3 and 6 hours. To evaluate, the efficacy of compound 1771, we used a mouse model of staphylococcal sepsis. Animals received intraperitoneal injections with 32 mg/kg of compound in 12-hour intervals. Treatment was initiated 24 hours prior to challenge and terminated at 72 hours post infection.
To examine the therapeutic value of compound 1771, we evaluated its half-life in mice. Animals received a single intraperitoneal injection of 32 mg/kg compound 1771. The blood of three animals was drawn 1, 6 and 12 hours following 1771 injection and serum samples were extracted with methanol and chloroform, separated by reversed-phase HPLC and subjected to mass spectrometry. […] Full conversion of compound 1771 into its two cleavage fragments occurred between 3 and 6 hours following injection. […]

B. anthracis Sterne [5] = assay: microbe, parasite or virus in culture; format: cell-based; conditions: 37° C., 18-22 hours, OD600
B. anthracis Sterne [6] = format: cell-based
E. faecalis - VRE V583 = assay: microbe, parasite or virus in culture; format: cell-based; conditions: 37° C., 18-22 hours, OD600
[7] = test system: B. anthracis LtaS2BA expressed in E. coli; format: cell-based; conditions: 200 μM compound
B. anthracis Sterne [8] = format: cell-based; conditions: 5 μM compound, liquid culture
S. aureus RN4220 [9] = assay: Growth of S. aureus culture with sub-lethal compound (OD600); conditions: until control culture OD600 1.0
E. faecium TX0016 [10] = format: cell-based
E. coli = format: cell-based
C. difficile CD196 = assay: Growth inhibition assay (MIC/IC50), 96-well; format: cell-based
S. aureus - MRSA USA300 = assay: microbe, parasite or virus in culture; format: cell-based; conditions: 37° C., 18-22 hours, OD600
E. faecalis V583 [11] = format: cell-based; remark: listed apart in the source
S. aureus RN4220 [12] = format: cell-based
S. aureus RN4220 [13] = format: cell-based; remark: listed apart in the source
E. faecium TX0016 [14] = format: cell-based; remark: listed apart in the source
[15] = target: Recombinant S. aureus LtaSSA expressed in E. coli (Staphylococcus aureus, UniProt Q2G093); format: cell-based
Chain of Recombinant S. aureus LtaSSA expressed in E. coli (Q2G093 whole entry): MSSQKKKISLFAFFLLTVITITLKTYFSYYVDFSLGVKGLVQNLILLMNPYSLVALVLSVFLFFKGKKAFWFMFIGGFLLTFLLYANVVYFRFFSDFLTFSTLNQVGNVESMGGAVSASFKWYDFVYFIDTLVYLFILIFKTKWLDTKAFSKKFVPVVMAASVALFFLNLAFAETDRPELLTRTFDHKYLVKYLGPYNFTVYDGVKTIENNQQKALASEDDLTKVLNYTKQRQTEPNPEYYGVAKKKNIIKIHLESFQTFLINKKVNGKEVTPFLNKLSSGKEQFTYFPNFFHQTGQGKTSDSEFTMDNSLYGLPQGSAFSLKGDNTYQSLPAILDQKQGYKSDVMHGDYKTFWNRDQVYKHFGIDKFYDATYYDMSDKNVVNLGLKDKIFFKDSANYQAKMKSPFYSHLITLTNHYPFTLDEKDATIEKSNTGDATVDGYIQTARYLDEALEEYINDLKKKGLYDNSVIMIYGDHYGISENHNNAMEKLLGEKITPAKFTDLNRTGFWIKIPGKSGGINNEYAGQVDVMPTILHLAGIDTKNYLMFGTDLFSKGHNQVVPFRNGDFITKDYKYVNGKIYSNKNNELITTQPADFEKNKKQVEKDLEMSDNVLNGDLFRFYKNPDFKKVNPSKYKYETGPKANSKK

eLtaS = eLtaS (Staphylococcus aureus, UniProt Q2G093); assay: eLtaS-mediated cleavage of NBD-PGC6 to NBD-DAGC6; format: biochemical, S. aureus; conditions: 100 μM compound, 6 hours, 37° C.
Chain of eLtaS (Q2G093 218-646): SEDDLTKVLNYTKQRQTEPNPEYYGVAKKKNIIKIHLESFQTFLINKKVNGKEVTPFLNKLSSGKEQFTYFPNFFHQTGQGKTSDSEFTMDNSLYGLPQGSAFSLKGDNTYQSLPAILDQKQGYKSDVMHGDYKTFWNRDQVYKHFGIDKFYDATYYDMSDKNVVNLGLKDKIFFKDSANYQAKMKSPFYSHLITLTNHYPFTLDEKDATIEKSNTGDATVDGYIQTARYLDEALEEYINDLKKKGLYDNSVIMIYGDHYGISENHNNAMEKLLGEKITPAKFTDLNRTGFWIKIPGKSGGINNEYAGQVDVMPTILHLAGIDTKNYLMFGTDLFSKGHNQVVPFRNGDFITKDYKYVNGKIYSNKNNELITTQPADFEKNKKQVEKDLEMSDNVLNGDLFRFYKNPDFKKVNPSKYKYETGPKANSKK
Procedure: FIG. 10. Compound 1771 inhibits eLtaS binding to and cleavage of phosphatidylglycerol (PG) in vitro. Using NBD-PGC6 with 6 carbon acyl chains cleavage of 2 nmol substrate by 2 nmol eLtaS was detectable after 6 hours incubation at 37° C. Chloroform extraction separated non-hydrolyzed NBD-PGC6 (aqueous phase—AP) from the hydrophobic reaction product nitro-benzoxadiazole diacylglycerol (NBD-DAGC6), which segregated into the organic phase (OP). Both phases were analyzed by normal-phase HPLC on a diol column (solid line). Elution profiles were monitored by fluorescence (excitation at 460 nm, emission at 534 nm). Identity of peak fractions was confirmed by mass spectrometry. Addition of 100 μM compound 1771 blocked NBD-DAGC6 production by eLtaS (dashed line).
We used size exclusion HPLC with BioBasic SEC300 column equilibrated with 20 nmol nitro-benzoxadiazole glycerol-phosphate (NBD-GP) to measure binding of enzyme to substrate. Chromatography of 2 nmol eLtaS on BioBasic SEC300 column led to the elution of enzyme.NBD-GP complex and absorbance at 460 nm (FIG. 5). […]

[16] = target: extracellular S. aureus LtaS (eLtaS) (Staphylococcus aureus, UniProt Q2G093); format: binding; conditions: 200 μM compound in mobile phase
Chain of extracellular S. aureus LtaS (eLtaS) (Q2G093 218-646): as above

C. perfringens SM101 = format: cell-based; conditions: nitrogen atmosphere, 37° C., 18-22 hours

Compound: O=C(COC(=O)Cc1coc2ccc3ccccc3c12)Nc1nnc(-c2ccccc2)o1 [Compound 1771, 2-oxo-2-[(5-phenyl-1,3,4-oxadiazol-2-yl)amino]ethylnaphtho[2,1-b]furan-1-ylacetate]
- MIC (E. faecium - VRE TX0016): 50.0 µM (≈ 21.4 µg/mL)
- pIC50 (E. faecium - VRE TX0016; sigmoidal fit, read-out: IC50): 4.63
- pIC50 ([1]; Isolate 1): 5.06
- MIC ([1]; Isolate 1): 18.8 µM (≈ 8.04 µg/mL)
- pIC50 ([1]; Isolate 2): 5.04
- MIC ([1]; Isolate 2): 18.8 µM (≈ 8.04 µg/mL)
- pIC50 ([1]; Isolate 3): 4.91
- MIC ([1]; Isolate 3): 18.8 µM (≈ 8.04 µg/mL)
- pIC50 (C. difficile JIR8094): 5.09
- pIC50 (B. cereus G9142): 4.97
- MIC (B. cereus G9142): 25.0 µM (≈ 10.7 µg/mL)
- LtaS immunoreactive signals ([2]; 5 μM compound): slightly unstable; also recorded: reduced
- abundance of sortase A (SrtA), control ([2]; 2 or 5 μM compound): remained unaffected; also recorded: not affected
- LTA production (immunoblot α-LTA) ([2]; sub-lethal concentrations of compound): affect the production of LTA; also recorded: reduced the abundance of LTA
- MIC (C. difficile UK1): 6.2 µM (≈ 2.65 µg/mL)
- pIC50 (C. difficile UK1; sigmoidal fit): 5.48
- MIC (B. anthracis Ames): 12.5 µM (≈ 5.34 µg/mL)
- pIC50 (B. anthracis Ames; sigmoidal fit): 5.12
- MIC (C. difficile R20291): 6.2 µM (≈ 2.65 µg/mL)
- pIC50 (C. difficile R20291; sigmoidal fit): 5.28
- MIC (S. aureus RN4220 (MSSA)): 12.5 µM (≈ 5.34 µg/mL)
- pIC50 (S. aureus RN4220 (MSSA); sigmoidal fit, read-out: IC50): 5.13 and 5.14
- Cell clusters/all cocci (E. faecalis V583 [3]): 2/496
- stability in mice [4]: unstable in mice with rapid loss of activity
- MIC (B. anthracis Sterne [5]): 12.5 µM (≈ 5.34 µg/mL)
- pIC50 (B. anthracis Sterne [5]; sigmoidal fit, read-out: IC50): 5.11 and 5.19
- Cell envelope diameter Δ (1771 vs mock) (B. anthracis Sterne [6]; 8 μM compound): 6.3 (±1.0) nm
- Cell envelope diameter (B. anthracis Sterne [6]; BHI agar with 8 μM compound, mean of 124 (SEM)): 46.8 (±0.7) nm
- MIC (E. faecalis - VRE V583): 50.0 µM (≈ 21.4 µg/mL)
- pIC50 (E. faecalis - VRE V583; sigmoidal fit, read-out: IC50): 4.56
- LTA production by LtaS2BA [7]: completely abolished; also recorded: abrogated
- chain length of vegetative bacilli (B. anthracis Sterne [8]): increased chain length; also recorded: formed longer chains
- reduced growth of staphylococci (S. aureus RN4220 [9]; 2 μM compound): 50%
- reduced growth of staphylococci (S. aureus RN4220 [9]; 5 μM compound): 75%
- Cell envelope diameter (E. faecium TX0016 [10]): 32.4 (±0.5) nm
- Cell envelope diameter Δ (1771 vs mock) (E. faecium TX0016 [10]): 9.6 (±0.6) nm
- growth of E. coli (E. coli): not affected; also recorded: did not affect the growth
- MIC (C. difficile CD196): 6.5 µM (≈ 2.78 µg/mL)
- pIC50 (C. difficile CD196; sigmoidal fit): 5.37
- MIC (S. aureus - MRSA USA300): 50.0 µM (≈ 21.4 µg/mL)
- pIC50 (S. aureus - MRSA USA300; sigmoidal fit, read-out: IC50): 4.85
- Cell envelope diameter (E. faecalis V583 [11]): 31.6 (±0.6) nm
- Cell envelope diameter Δ (1771 vs mock) (E. faecalis V583 [11]): 7.8 (±0.7) nm
- Cell envelope diameter (S. aureus RN4220 [12]): 38.8 (±0.9) nm
- Cell envelope diameter Δ (1771 vs mock) (S. aureus RN4220 [12]): 7.5 (±1.1) nm
- Cell clusters/all cocci (S. aureus RN4220 [13]): 3/387
- Cell clusters/all cocci (E. faecium TX0016 [14]): 1/295
- production of LTA promoted by plasmid encoded LtaSSA [15]: abrogated
- NBD-DAGC6 production by eLtaS (eLtaS): blocked; also recorded: inhibited
- Co-elution of phosphatidylglycerol with eLtaS, reduction [16]: more than 95%
- elution of NBD-PG.eLtaS complex [16]: abolished
- MIC (C. perfringens SM101): 6.2 µM (≈ 2.65 µg/mL)
- pIC50 (C. perfringens SM101; sigmoidal fit): 5.60
